Measurements: patent US8772463B2, “Fluorescent dye-labeled glucose bioprobe, synthesis method and usage thereof” (SNU R&DB Foundation, priority 2007, dated 2014)

Assays:
cells = test: Cell viability, CCK-8 kit; format: cell-based; settings: Cy3-Glc-α 12.5 μM
Experimental: (2) Therefore, Cy3-Glc-α should not affect cell viability. The viability of cells treated with Cy3-Glc-α (12.5 μM) by using a CCK-8 kit (Cell Counting Kit-8, Dojindo, Japan) was measured by using an ELISA plate reader (ELx800™, BioTex, USA) DP. CCK-8 is a colorimetric assay for determining the number of viable cells in cell proliferation and cytotoxicity assays. The principle of measuring cell viability of CCK-8 is the same as that of MTT. However, CCK-8 is more sensitive than MTT.

A549 cells [1] = test: Cy3-Glc-α intracellular uptake efficiency, confocal laser scanning microscope (CLSM); format: cell-based, human; settings: CLSM live-cell imaging
Experimental: 1×10^4 cells were cultured on a Lab-Tek glass chamber slide (Nalge Nunc International, Naperville, Ind., USA) in 35 mm cell culture dish. After 24 h, the glass chamber slide was taken from culture dish and loaded on chamber. Then, the chamber was attached to the microscope. The temperature of the chamber was maintained at 37° C. After injection of 12.5 μM of Cy3-Glc-α in RPMI 1640 in the chamber, the fluorescent image was taken every 60 sec, digitized, and saved on a computer for later analysis.
(1) To evaluate the applicability of the fluorescent glucose analogue (Cy3-Glc-α) of the present invention, finally obtained in Example 1, as a bioprobe, the intracellular uptake efficiency of Cy3-Glc-α was measured by using a confocal laser scanning microscope (CLSM).
(2) In addition, the experiment was performed by using the confocal laser scanning microscope to measure the optimum incubation time required to achieve the maximum uptake of the analogue Cy3-Glc-α.

A549 cells [2] = test: Fluorescence imaging analysis of competitive probe uptake; format: cell-based, human; settings: probe 12.5 μM
Experimental: Also, NIH/3T3, A549, C2C12 and 3T3/L1 cells, each having a population of 4×10^4 cells, were cultured on 35 mm cell culture dishes (BD Falcon™ Cell Culture Dish; BD Bioscience, CA, USA). Two days later, the cell culture medium was replaced with a glucose-depleted medium (DMEM, glucose free, GIBCO) supplemented with 0 mM, 11 mM or 55 mM D-glucose and 10 μM GB2-Cy3. After incubation at 37° C. for 30 min, the cells on the cover slips in the 35-mm cell culture dishes were washed twice with cold PBS and the cover slips were mounted on the caster of a fluorescence microscope (Olympus IX71). During observation under the fluorescence microscope, the cells were maintained at 37° C. in the chamber. Fluorescence images of 35-50 cells were taken by CCD camera (Axiocam MRm, Germany) and each cell was measured for fluorescence intensity using the image data analysis program Image-Pro® Plus (MediaCybernetics, USA). As ROIs (regions of interest), areas which encompassed cells within phase-contrast images were drawn using Image-Pro® Plus. Image-Pro® Plus analyzed CCD camera images to produce the digitized mean of fluorescence intensity within the ROIs that the present inventors had established. The background intensity was subtracted from the detected fluorescence intensity to give the fluorescence intensity value that a cell contained. In this manner, the fluorescence intensity was digitized for performing various experiments.
NIH/3T3 and A549 cells were cultured on microscope cover glasses in 35 mm cell culture dishes and subjected to fluorescence imaging analysis according to the protocol.

A549 cells [3] = test: Probe uptake by A549 cells, inverted fluorescent microscope (α/β anomers, alanine, 2-NBDG comparison); format: cell-based, human
Experimental: 1×10^4 cells were cultured on a Lab-Tek glass chamber slide (Nalge Nunc International, Naperville, Ind., USA) in 35 mm cell culture dish. After 24 h, the cells were treated for each experimental purpose. Then, the medium was replaced with RPMI 1640 medium containing 12.5 μM of Cy3-Glc-α. The cells were exposed to Cy3-Glc-α for 40 min, then washed with PBS 3 times. Finally, the glass chamber slide was taken from culture dish and loaded on the fluorescence microscope (Axiovert 200, Carl Zeiss, Germany). Fluorescence images of 35-50 cells were taken by CCD camera (Axiocam MRm, Germany) and fluorescence intensity of each cell was measured by Axiovision (program for data analysis). An area as ROIs (regions of interest) which contains a cell in phase-contrast image was drawn using Axiovision. Axiovision analyzed CCD camera images and provided the digitized mean of fluorescence intensity in the ROIs that the present inventors had established. The present inventors subtracted the background intensity from the fluorescence intensity to get the fluorescence intensity value that a cell contained. With the method described above, the present inventors digitized fluorescence intensity and performed various experiments.
To confirm the above hypothesis, real-time uptake of Cy3-Glc-α was measured, and the results were compared to those of Cy3-Glc-β by live imaging of A549 cells by using inverted fluorescent microscope. […] This led the present inventors to the conclusion that the stereochemistry at the C-1 anomeric position definitely influences the efficiency of mimicking glucose, and this might be due to the binding orientation of D-glucose in GLUTs [P. W. Hruz, M. M. Mueckler, Mole. Memb. Biol. 2001, 18, 183-193].
The cellular uptake of 2-NBDG was not detected under identical experimental conditions used for Cy3-Glc-α. […] To achieve the fluorescence intensity with 2-NBDG to 80% that of Cy3-Glc-α, a 10 fold increase in 2-NBDG concentration and a 20 fold increase in the lens exposure time in D-glucose-depleted medium were needed.
In addition, the cellular uptake of 2-NBDG in normal media (containing 10 mM D-glucose) was extremely low (>60% uptake reduction in normal media) and was hardly detected using fluorescent based imaging methods [R. G. O'Neil, L. Wu, N. Mullani, Mol. Imaging Biol. 2005, 7, 388-392]. 2-NBDG was detectable only in glucose-depleted media, and this means a critical limitation of bioapplication of 2-NBDG in the biologically significant environments. In comparison with 2-NBDG, the reduction of Cy3-Glc-α uptake in glucose-containing media was only 5% compared to that in glucose-depleted media (FIG. 18). Therefore, it was confirmed that Cy3-Glc-α was capable of being applied to a bioassay system regardless of glucose starvation.

Structure (SMILES): C[N+]1=C(/C=C/C=C2/N(CCCCC(=O)NCCOCCOCCNCCOC3OC(CO)C(O)C(O)C3O)c3ccccc3C2(C)C)C(C)(C)c2ccccc21 [Cy3-Glc-α, [2-(N-Cy3-3,6-dioxaoctane-1,8-diaminoethyl)]-α-D-glucose]
- cell viability (cells): does not affect cell viability
- incubation time to maximum uptake (A549 cells [1]): ≤ 35 min
- cellular uptake versus D-glucose concentration (A549 cells [2]): decreased in the cellular uptake of the glucose analogues in D-glucose dose-dependent manners
- change in the fluorescent intensity of ROIs when D-glucose changed from 10 mM to 55 mM (A549 cells [2]): approximately 5%
- fluorescent intensity of treated cells, GB2-Cy3 normalized to 100 (A549 cells [2]): 4
- uptake efficiency with or without alanine (osmotic pressure) (A549 cells [3]; 55 mM alanine in media): no difference in the uptake efficiency
- reduction of uptake in glucose-containing media compared to glucose-depleted media (A549 cells [3]; A549 cells): 5%
- uptake of Cy3-Glc-α superior to that of Cy3-Glc-β (A549 cells [3]; A549 cells, live imaging): 40%
